Tests used:
[1] = system: recombinant MMP-2; assay: Differential scanning fluorimetry (DSF); format: binding, human; settings: 1 μM MMP-2, 30 μM (Ctx) or 50 μM (P75 and P76) peptide, PBS pH 7.1, SYPRO-orange, average and SD of n ≥ 3
Method: The melting temperatures (Tm) of recombinant MMP-2 and its complexes with peptides were ascertained using BioRad CFX384 Touch real-time PCR (Hercules, CA, USA). The experiments were performed as previously described. The unfolding of the protein was detected using the fluorescent SYPRO-orange dye (Invitrogen, Carlsbad, CA, USA). MMP-2 and prospective ligand peptides were dissolved in 7.1 pH phosphate buffered saline (154 mM NaCl, 5.6 mM Na2PO4, 1.1mM KH2PO4), and the reaction mixture was made to a final concentration of 1 μM of protein, either 30 μM (Ctx) or 50 μM (P75 and P76) of peptide, and 1000x dilution of the SYPRO-Orange dye stock from the manufacturer. Excitation and emission filters of the dye were set at 450–490 nm and 560–580 nm, respectively. The temperature for the reaction was held at 25 °C for 5 min, and then a gradient of 25 °C to 95 °C was applied at a rate of 0.3 °C/min, and the fluorescence was recorded. To determine Tm of the protein, the first derivatives of melting curves were plotted using GraphPad Prism software, version 10.0.3.

[2] = molecular target: T1, Neuropilin-1 (NRP-1) (Homo sapiens, UniProt O14786); assay: Surface plasmon resonance (SPR); format: binding; settings: NRP-1 immobilized on NTA chip, steady-state affinity model, peptides 500 μM to 3.90 μM, n=3, 4 replicates, read-out: dissociation constant (KD) for NRP-1
T1 construct: containing amino acid residues Phe22-Lys644, with a poly-histidine tag at the C-terminus; purchased ACROBiosystems NR1-H5228
T1 sequence (O14786 22-644 isoform O14786-2): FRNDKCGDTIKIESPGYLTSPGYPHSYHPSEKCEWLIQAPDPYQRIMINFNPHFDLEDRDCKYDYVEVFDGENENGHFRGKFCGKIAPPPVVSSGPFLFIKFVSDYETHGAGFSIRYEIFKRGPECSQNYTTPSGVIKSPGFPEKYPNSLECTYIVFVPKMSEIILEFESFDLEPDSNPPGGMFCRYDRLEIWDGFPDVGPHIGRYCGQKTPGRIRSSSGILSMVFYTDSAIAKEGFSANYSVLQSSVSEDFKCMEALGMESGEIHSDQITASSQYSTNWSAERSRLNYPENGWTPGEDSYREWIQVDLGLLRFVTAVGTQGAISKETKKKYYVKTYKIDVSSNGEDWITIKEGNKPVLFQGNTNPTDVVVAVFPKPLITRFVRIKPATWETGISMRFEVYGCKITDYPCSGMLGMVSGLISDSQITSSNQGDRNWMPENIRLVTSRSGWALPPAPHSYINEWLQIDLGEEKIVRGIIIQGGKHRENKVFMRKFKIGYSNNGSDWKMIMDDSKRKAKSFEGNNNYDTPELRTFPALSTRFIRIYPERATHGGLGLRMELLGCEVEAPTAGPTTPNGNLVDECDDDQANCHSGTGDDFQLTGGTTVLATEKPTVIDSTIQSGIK
Method: (§1) Surface plasmon resonance (SPR) reagents, plates, and the NTA chip were purchased from GE Healthcare Life Sciences, now Cytiva (Marlborough, MA, USA). Measurements were performed using the Biacore 8000 SPR System (Marlborough, MA. USA). The running buffer used for protein immobilization and peptide binding consisted of 20 mM Tris, 150 mM NaCl, […] and 0.0005% Tween-20, adjusted to pH 7.4. MMP-2 and NRP-1 were immobilized onto the NTA chip at 15 nM and 25 nM concentration, respectively. Peptides were injected over the immobilized proteins using two-fold serial dilutions from 500 μM to 3.90 μM. Three experiments with four replicates of each were performed. The SPR response curves generated from the Biacore Insight Evaluation Software were fitted to a steady-state affinity model to obtain an equilibrium dissociation constant (KD) for each peptide — protein interaction.

[3] = system: MMP-2; assay: MMP-2 inhibition assay (Enzo MMP-2 drug discovery kit); format: biochemical, human; settings: NNGH positive control
Method: The MMP-2 inhibition assay was performed using the Enzo Life Sciences MMP-2 drug discovery kit. and the quenched fluorogenic substrate OmniMMP RED. Reference substrate was diluted to a final concentration of 5 μM, while the MMP-2 enzyme was diluted to 58 mU/μL, and the N-Isobutyl-N-(4-methoxyphenylsulfonyl)glycyl hydroxamic acid (NNGH) inhibitor was diluted to a concentration of 1/200 in assay buffer. […] The assay was performed using a black 96-well microplate. Fluorescence was measured at excitation/emission wavelengths of 545/576 nm, with a cutoff at 570 nm using Gen5 microplate reader (BioTeK, Shoreline, WA). Baseline fluorescence was recorded before adding NNGH inhibitor which was used as a positive control for MMP-2 inhibition. Reaction mixtures in the plate were incubated at 37 °C for 10 min, and fluorescence was measured at 10 min intervals for the first 30 min, then at 30 min intervals until 2 h had elapsed. Percentage of inhibition of MMP-2 activity by Ctx and its analogs was calculated as percent of control. Statistical analysis was performed using ANOVA with GraphPad Prism software, version 10.0.3.

[4] = system: U87MG glioblastoma cells; assay: Wound-healing scratch assay; format: cell-based, human; settings: 50 μM peptide, 24 h, mitomycin C 3 μg/ml; wound closure by ImageJ
Method: The U87MG GBM cell line (U-87 MG, ATCC® HTB-14) was cultured in Dulbecco’s Modified Eagle Medium (DMEM) and appropriate growth factors at 37°C in a humidified 5% CO2 atmosphere. Cells were seeded at 40,000 cells per well in 96-well plates and allowed to adhere overnight. Then, mitomycin C (3 μg/ml) was added to inhibit further cell replication, and 50 μM Ctx and its analogs were added. Untreated wells served as a control. Wounds were created by manually scratching the cell monolayer with a 200 μL multi-channel pipette tip, and plates were analyzed at 0 h and 24 h time points using the MetaXpress image acquisition software (Molecular Devices, San Jose, CA). The ImageJ Ver. 1.54f program (NIH (National Institutes of Health) was used for image analysis. Wound closure was quantified using the Wound_Healing_Size_tool_plugin., analyzing the percentage of wound area covered by migrating cells. To determine significance, statistical analysis was performed using appropriate methods (t-test or ANOVA) using GraphPad Prism software, version 10.0.3.

[5] = system: MMP-2; assay: Surface plasmon resonance (SPR); format: binding, human; settings: MMP-2 immobilized on NTA chip; peptides 500 μM to 3.90 μM; pH 7.4
Method: as §1

[6] = peptides at 1 μM, 50 μM and 100 μM, quenched fluorogenic substrate, one-way ANOVA

Substance | Change in melting temperature ΔTm ± SD [1] [°C] | Kd [2] [µM] | inhibition of MMP-2 enzymatic activity [3, 6] | inhibition of U-87MG cell migration [4] | binding to MMP-2 by SPR [5] | inhibition of MMP-2 enzymatic activity ([3]; Ctx at 1 μM, 5 μM, 10 μM, 15 μM and 20 μM, quenched fluorogenic substrate OmniMMP RED)
Ac-[Ser^35,Cyc(28,33)]Ctx(24-36)-NH2 [Peptide P75] | 0.76 ± 1.56 | 330 ± 146 | not statistically significant | Inhibition of U-87MG cell migration | – | –
Ac-[Cys^26,Ser^28,33,Cyc(26,35)]Ctx(24-36)-NH2 [Peptide P76] | 0.63 ± 0.36 | – | not statistically significant | – | – | –
Ac-[Cyc(28,33)]Ctx(27-34)-NH2 [Peptide P78] | – | – | not statistically significant | about 30% | – | –
Chlorotoxin [Ctx, reference compound] | – | – | not statistically significant | – | did not bind | did not inhibit MMP-2 activity
